The text below walks through data of patent US20240270762A1, “PENICILLIN-BINDING PROTEIN INHIBITORS” (priority 2021, published 2024).

Converted amounts (≈) assume the structure as drawn.

Common to all, as to assay type: cell-based
One experiment has as its system P. aeruginosa ATCC 35151. Nature of the experiment: microbe, parasite or virus in culture. As to conditions: Pseudomonas aeruginosa, ATCC35151, read-out: Minimum inhibitory concentration, P. aeruginosa ATCC 35151.
Experiment [1] concerns P. aeruginosa (ΔmexAB-oprM). Nature of the experiment: Broth microdilution MIC in iron-depleted CAMHB (IDM). The conditions noted are these: Pseudomonas aeruginosa; iron-depleted CAMHB (IDM); […]; read-out: Minimum inhibitory concentration, P. aeruginosa ΔmexAB-oprM.
For another experiment, the system named is P. aeruginosa CDC-0110. Nature of the experiment: microbe, parasite or virus in culture. As to conditions: Pseudomonas aeruginosa, CDC0110, read-out: Minimum inhibitory concentration, P. aeruginosa CDC-0110.
Experiment [2] concerns B. humptydooensis ATCC BAA-2767. Nature of the experiment: microbe, parasite or virus in culture. As to conditions: Burkholderia humptydooensis, ATCCBAA2767, read-out: Minimum inhibitory concentration (MIC), B. humptydooensis ATCC BAA-2767.
In a further experiment the test system is A. baumannii CDC-0083. Nature of the experiment: microbe, parasite or virus in culture. The conditions noted are these: Acinetobacter baumannii, CDC0083, read-out: MIC, A. baumannii CDC-0083.

On to `O=C(NCCCN1CCN(C(=O)N[C@@H](C(=O)N[C@H]2Cc3ccc(F)c(C(=O)O)c3OB2O)c2cc(F)c(O)c(O)c2Cl)C(=O)C1=O)c1ccc(O)cc1F` (racemic) [Example 417], for which the MIC in the experiment with P. aeruginosa ATCC 35151 is under 1 µg/mL; in experiment [1], under 1 µg/mL; with P. aeruginosa CDC-0110 it was 32 to 64 µg/mL (≈ 41.1 to 82.3 µM); in experiment [2] it was over 128 µg/mL; with A. baumannii CDC-0083, over 128 µg/mL.

As to `O=C(NCCCN1CCN(C(=O)N[C@@H](C(=O)N[C@H]2Cc3ccc(F)c(C(=O)O)c3OB2O)c2cc(F)c(O)c(O)c2Cl)C(=O)C1=O)c1c(F)cc(O)cc1F` (racemic) [Example 420], the MIC in the experiment with P. aeruginosa ATCC 35151 is under 1 µg/mL; in experiment [1], under 1 µg/mL; in the experiment with P. aeruginosa CDC-0110, under 1 µg/mL; in experiment [2] it was 3 µg/mL (≈ 3.77 µM); in the experiment on A. baumannii CDC-0083, over 128 µg/mL.

`O=C(NCCCN1CCN(C(=O)N[C@H](C(=O)N[C@H]2Cc3ccc(F)c(C(=O)O)c3OB2O)c2cc(F)c(O)c(O)c2Cl)C(=O)C1=O)c1ccc(O)cc1Cl` (single isomer, unassigned) [Example 470]: the MIC in the experiment with P. aeruginosa ATCC 35151 is under 1 µg/mL; in experiment [1], under 1 µg/mL; with P. aeruginosa CDC-0110, 8 to 16 µg/mL (≈ 10.1 to 20.1 µM); in experiment [2], 8 to 16 µg/mL (≈ 10.1 to 20.1 µM); in the experiment with A. baumannii CDC-0083, over 128 µg/mL.

`O=C(NCCCN1CCN(C(=O)N[C@@H](C(=O)N[C@H]2Cc3ccc(F)c(C(=O)O)c3OB2O)c2cc(F)c(O)c(O)c2Cl)C(=O)C1=O)c1ccc(O)cc1Cl` (single isomer, unassigned) [Example 471]: the MIC in the experiment with P. aeruginosa ATCC 35151 is under 1 µg/mL; in experiment [1], under 1 µg/mL; in the experiment on P. aeruginosa CDC-0110 it was under 1 µg/mL; in experiment [2], under 1 µg/mL; in the experiment with A. baumannii CDC-0083 it was over 128 µg/mL.

In the case of `O=C(NCCCN1CCN(C(=O)N[C@H](C(=O)N[C@H]2Cc3ccc(F)c(C(=O)O)c3OB2O)c2cc(F)c(O)c(O)c2Cl)C(=O)C1=O)c1cc(F)c(O)cc1F` (single isomer, unassigned) [Example 472], the MIC in the experiment with P. aeruginosa ATCC 35151 is under 1 µg/mL; in experiment [1], under 1 µg/mL; in the experiment on P. aeruginosa CDC-0110, under 1 µg/mL; in experiment [2], 2 to 4 µg/mL (≈ 2.51 to 5.03 µM); with A. baumannii CDC-0083, over 128 µg/mL.

As to `O=C(NCCCN1CCN(C(=O)N[C@@H](C(=O)N[C@H]2Cc3ccc(F)c(C(=O)O)c3OB2O)c2cc(F)c(O)c(O)c2Cl)C(=O)C1=O)c1cc(F)c(O)cc1F` (single isomer, unassigned) [Example 473], the MIC was under 1 µg/mL in the experiment with P. aeruginosa ATCC 35151; under 1 µg/mL in experiment [1]; under 1 µg/mL in the experiment with P. aeruginosa CDC-0110; under 1 µg/mL in experiment [2]; over 128 µg/mL in the experiment with A. baumannii CDC-0083.

In the case of `O=C(O)c1c(F)ccc2c1OB(O)[C@@H](NC(=O)C(NC(=O)N1CCN(C3CCN(C(=O)c4c(F)ccc(O)c4F)CC3)C(=O)C1=O)c1cc(F)c(O)c(O)c1Cl)C2` (stereo partly drawn) [Example 308, (3R)-3-(2-(2-chloro-5-fluoro-3,4-dihydroxyphenyl)-2-(4-(1-(2,6-difluoro-3-hydroxybenzoyl)piperidin-4-yl)-2,3-dioxopiperazine-1-carboxamido)acetamido)-7-fluoro-2-hydroxy-3,4-dihydro-2H-benzo[e][1,2]oxaborinine-8-carboxylic acid], the MIC in the experiment with P. aeruginosa ATCC 35151 is under 1 µg/mL; in experiment [1], under 1 µg/mL; in the experiment with P. aeruginosa CDC-0110, under 1 µg/mL; in experiment [2], 2 to 4 µg/mL (≈ 2.43 to 4.87 µM); in the experiment with A. baumannii CDC-0083, under 1 µg/mL.

As for `O=C(O)c1c(F)ccc2c1OB(O)[C@@H](NC(=O)C(NC(=O)N1CCN(C3CCN(C(=O)c4cc(O)cc(O)c4)CC3)C(=O)C1=O)c1cc(F)c(O)c(O)c1Cl)C2` (stereo partly drawn) [Example 309, (3R)-3-(2-(2-chloro-5-fluoro-3,4-dihydroxyphenyl)-2-(4-(1-(3,5-dihydroxybenzoyl)piperidin-4-yl)-2,3-dioxopiperazine-1-carboxamido)acetamido)-7-fluoro-2-hydroxy-3,4-dihydro-2H-benzo[e][1,2]oxaborinine-8-carboxylic acid], the MIC (with P. aeruginosa ATCC 35151; in experiment [1]; in the experiment on P. aeruginosa CDC-0110; in experiment [2]; with A. baumannii CDC-0083) was under 1 µg/mL in each case.

Take `CN(CCCN1CCN(C(=O)NC(C(=O)N[C@H]2Cc3ccc(F)c(C(=O)O)c3OB2O)c2cc(F)c(O)c(O)c2Cl)C(=O)C1=O)C(=O)c1cccc(O)c1` (stereo partly drawn) [Example 310, (3R)-3-(2-(2-chloro-5-fluoro-3,4-dihydroxyphenyl)-2-(4-(3-(3-hydroxy-N-methylbenzamido)propyl)-2,3-dioxopiperazine-1-carboxamido)acetamido)-7-fluoro-2-hydroxy-3,4-dihydro-2H-benzo[e][1,2]oxaborinine-8-carboxylic acid]: the MIC (in the experiment on P. aeruginosa ATCC 35151; in experiment [1]; with P. aeruginosa CDC-0110; in experiment [2]; in the experiment with A. baumannii CDC-0083) was under 1 µg/mL in each case.

Take `O=C(NCCCN1CCN(C(=O)NC(C(=O)N[C@H]2Cc3ccc(F)c(C(=O)O)c3OB2O)c2cc(F)c(O)c(O)c2Cl)C(=O)C1=O)c1ccncc1F` (stereo partly drawn) [Example 400, (3R)-3-(2-(2-chloro-5-fluoro-3,4-dihydroxyphenyl)-2-(4-(3-(3-fluoroisonicotinamido)propyl)-2,3-dioxopiperazine-1-carboxamido)acetamido)-7-fluoro-2-hydroxy-3,4-dihydro-2H-benzo[e][1,2]oxaborinine-8-carboxylic acid]: the MIC with P. aeruginosa ATCC 35151 was under 1 µg/mL; in experiment [1], under 1 µg/mL; in the experiment on P. aeruginosa CDC-0110, under 1 µg/mL; in experiment [2], 2 to 4 µg/mL (≈ 2.62 to 5.24 µM); in the experiment with A. baumannii CDC-0083, 2 to 4 µg/mL (≈ 2.62 to 5.24 µM).

On to `O=C(NCCCN1CCN(C(=O)NC(C(=O)N[C@H]2Cc3ccc(F)c(C(=O)O)c3OB2O)c2cc(F)c(O)c(O)c2Cl)C(=O)C1=O)c1c(F)cncc1F` (stereo partly drawn) [Example 402, (3R)-3-(2-(2-chloro-5-fluoro-3,4-dihydroxyphenyl)-2-(4-(3-(3,5-difluoroisonicotinamido)propyl)-2,3-dioxopiperazine-1-carboxamido)acetamido)-7-fluoro-2-hydroxy-3,4-dihydro-2H-benzo[e][1,2]oxaborinine-8-carboxylic acid], for which the MIC with P. aeruginosa ATCC 35151 is under 1 µg/mL; in experiment [1], under 1 µg/mL; with P. aeruginosa CDC-0110, under 1 µg/mL; in experiment [2] it was 2 to 4 µg/mL (≈ 2.56 to 5.12 µM); with A. baumannii CDC-0083, 2 to 4 µg/mL (≈ 2.56 to 5.12 µM).

For the compound `O=C(NCCCN1CCN(C(=O)NC(C(=O)N[C@H]2Cc3ccc(F)c(C(=O)O)c3OB2O)c2cc(F)c(O)c(O)c2Cl)C(=O)C1=O)c1c(F)cncc1Cl` (stereo partly drawn) [Example 403, (3R)-3-(2-(2-chloro-5-fluoro-3,4-dihydroxyphenyl)-2-(4-(3-(3-chloro-5-fluoroisonicotinamido)propyl)-2,3-dioxopiperazine-1-carboxamido)acetamido)-7-fluoro-2-hydroxy-3,4-dihydro-2H-benzo[e][1,2]oxaborinine-8-carboxylic acid], the MIC with P. aeruginosa ATCC 35151 was under 1 µg/mL; in experiment [1] it was under 1 µg/mL; in the experiment with P. aeruginosa CDC-0110 it was under 1 µg/mL; in experiment [2] it was 2 to 4 µg/mL (≈ 2.51 to 5.02 µM); in the experiment with A. baumannii CDC-0083, 2 to 4 µg/mL (≈ 2.51 to 5.02 µM).

Turning to `O=C(NCCCN1CCN(C(=O)NC(C(=O)N[C@H]2Cc3ccc(F)c(C(=O)O)c3OB2O)c2cc(F)c(O)c(O)c2Cl)C(=O)C1=O)c1cc(F)c(F)c(O)c1F` (stereo partly drawn) [Example 404, (3R)-3-(2-(2-chloro-5-fluoro-3,4-dihydroxyphenyl)-2-(2,3-dioxo-4-(3-(2,4,5-trifluoro-3-hydroxybenzamido)propyl)piperazine-1-carboxamido)acetamido)-7-fluoro-2-hydroxy-3,4-dihydro-2H-benzo[e][1,2]oxaborinine-8-carboxylic acid], the MIC in the experiment on P. aeruginosa ATCC 35151 was under 1 µg/mL; in experiment [1], under 1 µg/mL; in the experiment on P. aeruginosa CDC-0110 it was under 1 µg/mL; in experiment [2], over 128 µg/mL; in the experiment with A. baumannii CDC-0083, over 128 µg/mL.
